Reference: patent US7037652B2, “Expression analysis of KIAA nucleic acids and polypeptides useful in the diagnosis and treatment of prostate cancer” (Wyeth, priority 2000, dated 2006)

How the values were obtained:
[1] = test system: LNCaP cells; conditions: MTT assay, FIG. 1A
Experimental: Human prostatic cancer cell lines LNCaP, DU-145, PC-3, and Tsu-prl were obtained from ATCC. LNCaP cancer cells were maintained in humidified atmosphere of 5% CO2 in air in RPMI 1640 medium supplemented with 10% fetal calf serum (Life Technologies, Inc, Rockville, Md.), 3 mM L-glutamine, 100 μg/ml streptomycin and 100 units/ml penicillin. Other lines were maintained in DMEM containing 3 mM L-glutamine, 100 μg/ml streptomycin, 100 units/ml penicillin, and 10% FCS in humidified atmosphere of 5% CO2. To examine the effects of steroids, cells were cultured in RPMI 1640 medium containing 5% FCS treated with dextran coated charcoal (Hyclone, Logan, Utah) for 24 hs before treatment. Cells were grown in the absence or presence of 10 nM DHT for 0, 2, 4, 6, 12, 24, 48, and 72 hs. They were collected and frozen at each time point. Two hundred μl of medium were collected from each flask for PSA assay.
To verify the effect of DHT on the growth of LNCaP cells, cells at 3,000 cells/well were plated in 96-well plates for 24 hs before treatment with DHT. After 72 hs, MTT was added to each well and incubated at 37° C. for four hs. At the end of incubation, the supernatant was removed and 100 μl DMSO was added to each well to dissolve […]. Plates were subsequently read in a plate reader at […].

[2] = test system: PSA production of LNCaP cells
[3] = test system: PSA expression in LNCaP cells; conditions: 10 nM DHT, FIG. 3A
[4] = test system: KIAA 18 expression in LNCaP cells; conditions: 10 nM DHT
[5] = test system: KIAA 96 expression in LNCaP cells; conditions: 10 nM DHT, 24 hours, FIG. 3C
[6] = test system: Prostatic Acid Phosphatase (PAcP) in LNCaP; conditions: cited from earlier work

C[C@]12CCC(=O)C[C@@H]1CC[C@@H]1[C@@H]2CC[C@]2(C)[C@@H](O)CC[C@@H]12 [DHT, dihydrotestosterone]
growth of LNCaP cells [1]: stimulated
PSA production [2]: increased in a dose-dependent manner
time at which PSA signal was first detected [2]: 12 h
time of maximal PSA level [2]: about 48 hs
PSA expression increase relative to control ([3]; 12 hours): 3 fold
PSA expression induction relative to control ([3]; 72 hours): approximately 4 fold
time at which KIAA 18 induction began [4]: 12 h
KIAA 18 over-expression relative to control ([4]; 24 hours, FIG. 3B): 2 fold
KIAA 18 induction relative to baseline ([4]; 72 hours): 3 fold
KIAA 96 expression down relative to baseline [5]: 6 fold
PAcP expression [6]: suppressed
